According to PMC10779255, “Novel Hydroxamic Acids Containing Aryl-Substituted 1,2,4- or 1,3,4-Oxadiazole Backbones and an Investigation of Their Antibiotic Potentiation Activity” (International Journal of Molecular Sciences, 2023):
“Also recorded” adds a separate entry of the source.

Assays:
E. coli MG1655 = test: Growth curves of E. coli MG1655 with antibiotics, with or without LpxC inhibitors (antibiotic potentiation); assay type: cell-based, Escherichia coli; details: for Activity: combined action together with the antibiotic, marking used for QSAR; for potentiation of kanamycin (sensitivity of cells): kanamycin 0.62 μM; for potentiation of kanamycin (sensitivity of cells) / potentiation of rifampicin (sensitivity of cells): inhibitor 50 or 100 µM; for potentiation of kanamycin (sensitivity of cells) / potentiating activity with nalidixic acid (growth inhibition) / potentiation of rifampicin (sensitivity of cells): OD600 growth curves; for potentiating activity with nalidixic acid (growth inhibition): nalidixic acid 17.22 μM, inhibitor 50–100 µM; for potentiation of rifampicin (sensitivity of cells): rifampicin 6.08 μM; for bacteriostatic effect in the first 10 h of incubation: with antibiotic, resumption of culture growth observed subsequently; as to Activity: key: active (1); inactive (0)
Method: (§1) Escherichia coli strain MG1655 and Pseudomonas aeruginosa strain ATCC 27853 were obtained from the American Type Culture Collection (ATCC; Rockville, MD, USA). Subculturing and inoculum preparation were prepared according to the Clinical and Laboratory Standards Institute (CLSI) recommended method, M7-A9 [42], using MHA and MHB.
Growth curves were obtained with a Bioscreen C automated growth analysis system. Cultures of E. coli MG1655 were grown overnight at 37 °C, diluted 1:100 in fresh medium, inoculated into honeycomb wells in triplicate, and grown at 37 °C with maximum shaking using the platform of the Bioscreen C instrument. […] OD600 values were recorded automatically at specified times, and the means of the triplicate cultures were plotted.

P. aeruginosa ATCC 27853 = test: MIC (broth microdilution) and growth curves of antibiotics in combination with 9c or 9d; assay type: cell-based, Pseudomonas aeruginosa; details: for time of growth inhibition in combination with nalidixic acid: 50 μM of compound + 2.15 μM nalidixic acid, growth curves; for MIC: Pseudomonas aeruginosa, ATCC27853, read-out: MIC of nalidixic acid in the presence of compound; for P. aeruginosa ATCC 27853 growth in combination with antibiotics: with nalidixic acid or rifampicin
Method: as §1
Minimum inhibitory concentrations (MICs) for rifampicin and nalidixic acid were determined via the modified broth microdilution method in triplicate according to CLSI guidelines M7-A9 and M100-A30 [43]. The antibiotics were serially diluted twofold in 100 μL of MHB. The bacteria inoculum was 100 μL of a 1.0 × 10^6 CFU/mL dilution in MHB. MICs for antibiotics in the presence of 9c or 9d were determined with the same method.
MIC endpoints were read after 24 h of incubation with an iMark microplate absorbance reader (Bio-Rad, Hercules, CA, USA). Growth curves of P. aeruginosa ATCC 27853 in the presence of rifampicin/nalidixic acid and 9c/9d were obtained using a multifunction microplate reader, SuperMax 3100 (ShanghaiFlash, Shanghai, China). Cells were grown in triplicate at 37 °C with aeration.

[1] = Cytotoxicity assay (Alamar Blue); assay type: cell-based; details: human, HEK293 cells, 72 h exposure, mean ± SD, at least 3 independent experiments
Method: (§2) The HEK293 cell line was obtained from the ECACC (European Collection of Authenticated Cell Cultures, cat. 85120602, Salisbury, UK). The cells were grown in monolayer culture in Dulbecco’s Modified Eagle Medium (DMEM) (PanEco, Moscow, Russia) supplemented with 2 mM of L-glutamine, 1% penicillin/streptomycin (Capricorn Scientific, Ebsdorfergrund, Germany), and 10% heat-inactivated fetal bovine serum (HyClone, Cytiva, Pasching, Austria) in a humidified atmosphere of 5% CO2 and at 37 °C (Binder, Tuttlingen, Germany). For analysis, the HEK293 cells were seeded into a 96-well plate (Corning Incorporated, Corning, NY, USA) in 100 μL of complete culture medium at a final concentration of 1 × 10^4 cells/well and cultured for 24 h for proper attachment. Subsequently, the medium was removed, and cells were exposed to the test inhibitor with different concentrations for 72 h in 100 μL of fresh complete culture medium. The sensitivity of the cells to test inhibitor molecules was detected using the vital dye Alamar Blue (Invitrogen, Carlsbad, CA, USA). The Alamar Blue assay was performed according to the procedure described by O’Brien et al.. After incubation with test inhibitor molecules, 10 μL of Alamar Blue reagent was added to each well, cell culture plates were returned to a humidified incubator, and the fluorescence was read after 3 h. The plates were exposed to an excitation wavelength of 545 nm, and the emission at 600 nm was measured with the CLARIOstar Plus (BMG Labtech, Ortenberg, Germany, Software Version 5.70 R2). To determine corresponding 50% cellular cytotoxicity (CC50) values, a four-parameter sigmoidal fit curve model (GraphPad Prism 8 software) was used to measure the data.

HEK293 cell line = test: Cytotoxicity assay (Alamar Blue); assay type: cell-based; details: HEK293 cells, 72 h exposure, mean ± SD, at least 3 independent experiments
Method: as §2

E. coli LpxC = details: cited from earlier work

| SMILES | Activity (E. coli MG1655) | potentiation of kanamycin (sensitivity of cells) (E. coli MG1655) | potentiating activity with nalidixic acid (growth inhibition) (E. coli MG1655) | potentiation of rifampicin (sensitivity of cells) (E. coli MG1655) | bacteriostatic effect in the first 10 h of incubation (E. coli MG1655) | melting point | decrease of MIC of rifampicin (P. aeruginosa ATCC 27853; 25 μM of compound) | reduction of MIC of nalidixic acid (P. aeruginosa ATCC 27853; 25 μM of compound) | MIC of rifampicin in the presence of compound (P. aeruginosa ATCC 27853; 50 μM of compound) | reduction of MIC of nalidixic acid (P. aeruginosa ATCC 27853; 50 μM of compound) | reduction of MIC of rifampicin (P. aeruginosa ATCC 27853; 50 μM of compound) | time of growth inhibition in combination with nalidixic acid (P. aeruginosa ATCC 27853) | MIC of rifampicin in the presence of compound (P. aeruginosa ATCC 27853; 100 μM of compound) | decrease of MIC of nalidixic acid (P. aeruginosa ATCC 27853; 100 μM of compound) | reduction of MIC of rifampicin (P. aeruginosa ATCC 27853; 100 μM of compound) | MIC (P. aeruginosa ATCC 27853; 100 μM of compound) | P. aeruginosa ATCC 27853 growth in combination with antibiotics (P. aeruginosa ATCC 27853) | CC50 at 72 h [1] | CC50 (HEK293) (HEK293 cell line) | inhibition of E. coli LpxC (E. coli LpxC) |
| --- | --- | --- | --- | --- | --- | --- | --- | --- | --- | --- | --- | --- | --- | --- | --- | --- | --- | --- | --- | --- |
| O=C(Cc1nc(-c2cc(F)c(F)c(F)c2)no1)NO [Compound 9c] | 1 | greatest effectiveness; also recorded: greatest potentiating activity | greatest potentiating activity | greatest effectiveness; also recorded: greatest potentiating activity | powerful bacteriostatic effect | 159.2 °C (dec.) | twofold | two times | 0.08 µM | four times | 64 times | ≤ 14 h | 0.08 µM | approximately eight-fold | 64 times | 2.15 µM | significantly reduced; also recorded: best results | 189 ± 29.5 µM | – | – |
| Cc1cccc(-c2noc(CC(=O)NO)n2)c1 [Compound 9d] | 1 | greatest potentiating activity | greatest potentiating activity | greatest potentiating activity | powerful bacteriostatic effect | 165.4 °C (dec.) | inactive | ineffective | 0.08 µM | four times | 64 times | ≤ 8 h | 0.08 µM | approximately eight-fold | 64 times | 2.15 µM | significantly reduced; also recorded: best results | 176 ± 17.8 µM | – | – |
| Cn1c(-c2nnc(C(=O)NO)o2)cc2ccccc21 [Compound 36] | 1 | completely ineffective | inhibited bacterial growth less effectively; also recorded: weak potentiating activity | completely ineffective | – | 198 °C (dec.) | – | – | – | – | – | – | – | – | – | – | – | 132 ± 23.7 µM | increased toxicity | – |
| CCCc1cc(C2=N[C@@H](C(=O)NO)CO2)cc(OC)c1OC [L-161,240] | – | – | – | – | – | – | – | – | – | – | – | – | – | – | – | – | – | – | – | potent inhibitors |
